Reference: patent US20190328784A1, “CHIMERIC ANTIGEN RECEPTORS (CARS) SPECIFIC FOR MUC1 AND METHODS FOR THEIR USE” (Poseida Therapeutics, Inc., priority 2016, published 2019)
“Also recorded” adds a separate entry of the source. Read-outs that look alike come from different tables or passages of the source.

B1: K2B-HL: MUC1 scFv CAR; single chain antibody SEQ ID NO: 10 (protein)
scFv: QVQLKESGPGLVAPSQSLSMTCTVSGFSLTTYGVHWVRQPPGKGLEWLVVIWSDGSTTYNSPLKSRLSISRDNSKSQVFLKMNSLQADDTAIYYCAKNYLGSLDYWGQGTSVTVSSGGGGSGGGGSGGGGSDVVLTQTPLSLPVSLGDQASISCRSSQSLVHNNGDTYLHWYLQKPGQSPKLLIYKVSNRFSGVPDRFSGSGSGTDFTFKISRVEAEDLGVYFCSQTTHVPLTFGAGTKLELK
modifications: left off: a dimerising Fc or GST
B2: F1C-HL: MUC1 scFv CAR; single chain antibody SEQ ID NO: 22 (protein)
scFv: QITLKESGPGILQPSQTLSLTCSFSGFSLSTSGMGVSWIRQPSGKGLEWLSHIYWDDDKRYNPSLKSRLSISKDTSRNQVFLKITSVDTADTATYYCAPGVSSWFPYWGPGTLVTVSAGGGGSGGGGSGGGGSSIVMTQTPKFLPVSAGDRVTVTCKASQSVGNYVAWYQQKPGQSPKLLIYFASNRYSGVPDRFTGSGSGTDFTFTISSVQVEDLAVYFCQQHYIFPYTFGSGTKLEIK
modifications: left off: a dimerising Fc or GST

Columns and labels:
[1] = system: cells; experiment: AP1903 amount needed in vitro for effective signaling of cells; type: cell-based; conditions: conversion with 1600 Da MW
Description: The fixed dose of AP1903 for injection used, for example, may be 0.4 mg/kg intravenously infused over 2 hours. The amount of AP1903 needed in vitro for effective signaling of cells is 10-100 nM (1600 Da MW). This equates to 16-160 μg/L or ^˜0.016-1.6 μg/kg (1.6-160 μg/kg). Doses up to 1 mg/kg were well-tolerated in the Phase I study of AP1903 described above. Therefore, 0.4 mg/kg may be a safe and effective dose of AP1903 for this Phase I study in combination with the therapeutic cells.

[2] = system: Human pan T-cells; experiment: iC9 safety switch test: modified T cells incubated 24 hours with AP1903, viability by 7-AAD flow cytometry; type: cell-based; conditions: 24 hours incubation, 0-1000 nM tested
Description: FIG. 7 is a series of flow cytometry plots depicting the abundance of cells moving from an area of live cells (the gated lower right quadrant) to an area populated by apoptotic cells (the upper left quadrant) as a function of increasing dosage of the induction agent (AP1903) in cells modified to express a therapeutic agent (a CARTyrin) alone or in combination with an inducible caspase polypeptide of the disclosure (encoded by an iC9 construct (also known as a “safety switch”) introduced into cells by a piggyBac (PB) transposase) at day 12 post nucleofection. […]
FIG. 9 is a pair of graphs depicting a quantification of the aggregated results shown either in FIG. 7 (left graph) or FIG. 8 (right graph). […]
To test the iC9 safety switch, each of the four modified T cells were incubated for 24 hours with 0, 0.1 nM, 1 nM, 10 nM, 100 nM or 1000 nM AP1903 (an induction agent for […]). Viability was assessed by flow cytometry using 7-aminoactinomycin D (7-AAD), a fluorescent intercalator, as a marker for cells undergoing apoptosis.

[3] = cited from earlier work
[4] = system: cells; conditions: cited from earlier work
[5] = molecular target: T1, cleaved, non-shed MUC1-C (Homo sapiens, UniProt P15941); experiment: MUC1-scFv CAR function/epitope assay (degranulation, CD107a+ cells); type: cell-based; conditions: cells that received the extracellular MUC1-C construct
T1 construct: expressed in transfected cells; host or cells: K562, Raji and RPMI8226 cells modified to express MUC1-C
T1 sequence (P15941 with tags, fused parts or gaps): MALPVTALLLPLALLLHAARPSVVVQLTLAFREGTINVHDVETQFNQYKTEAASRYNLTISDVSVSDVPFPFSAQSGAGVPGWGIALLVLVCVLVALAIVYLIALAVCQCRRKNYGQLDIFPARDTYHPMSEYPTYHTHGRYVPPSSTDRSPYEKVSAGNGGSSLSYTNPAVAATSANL
Description: (§1) FIG. 14 is a graph depicting a MUC1-scFv CAR function assay. […] MUC1-scFv function is measured by the extent of degranulation of the cells in each condition contacted with the MUC1-scFv along the X-axis. Degranulation was measured as the percentage of total cells that were CD107a-positive (CD107a+).
(§2) The results of a functional assay are provided in the graph wherein MUC1-C scFv-CAR function was measured by the extent of degranulation of the cells in each condition contacted with the MUC1-scFv along the X-axis. Degranulation was measured as the percentage of total cells that were CD107a-positive (CD107a+). The chart summarizes the relative activity of each MUC1-C scFv-CAR during the functional assay.
(§3) The function of each of the MUC1-scFv CARs described in this example was assayed in K562 cells, Raji cells and RPMI8226 cells (“8226”) cells in either unmodified conditions or following transfection with MUC1 constructs (either full-length or MUC1-C) to generate modified K562 cells, modified Raji cells and modified 8226 cells. Function of each of the MUC1-scFv CARs was measured by the CAR's ability to degranulate each cell type. Degranulation was measured by the percent of total cells that express […] (percentage of […] cells).
(§4) The F1C-HL, M1A-LH and K2B-HL MUC1-scFv CARs were further tested to determine epitope binding.

[6] = molecular target: T2, full length MUC1 (Homo sapiens, UniProt P15941); experiment: as above; type: cell-based; conditions: cells expressing full-length MUC1
T2 construct: expressed in transfected cells; host or cells: K562, Raji and RPMI8226 cells
T2 sequence (P15941 24-1255): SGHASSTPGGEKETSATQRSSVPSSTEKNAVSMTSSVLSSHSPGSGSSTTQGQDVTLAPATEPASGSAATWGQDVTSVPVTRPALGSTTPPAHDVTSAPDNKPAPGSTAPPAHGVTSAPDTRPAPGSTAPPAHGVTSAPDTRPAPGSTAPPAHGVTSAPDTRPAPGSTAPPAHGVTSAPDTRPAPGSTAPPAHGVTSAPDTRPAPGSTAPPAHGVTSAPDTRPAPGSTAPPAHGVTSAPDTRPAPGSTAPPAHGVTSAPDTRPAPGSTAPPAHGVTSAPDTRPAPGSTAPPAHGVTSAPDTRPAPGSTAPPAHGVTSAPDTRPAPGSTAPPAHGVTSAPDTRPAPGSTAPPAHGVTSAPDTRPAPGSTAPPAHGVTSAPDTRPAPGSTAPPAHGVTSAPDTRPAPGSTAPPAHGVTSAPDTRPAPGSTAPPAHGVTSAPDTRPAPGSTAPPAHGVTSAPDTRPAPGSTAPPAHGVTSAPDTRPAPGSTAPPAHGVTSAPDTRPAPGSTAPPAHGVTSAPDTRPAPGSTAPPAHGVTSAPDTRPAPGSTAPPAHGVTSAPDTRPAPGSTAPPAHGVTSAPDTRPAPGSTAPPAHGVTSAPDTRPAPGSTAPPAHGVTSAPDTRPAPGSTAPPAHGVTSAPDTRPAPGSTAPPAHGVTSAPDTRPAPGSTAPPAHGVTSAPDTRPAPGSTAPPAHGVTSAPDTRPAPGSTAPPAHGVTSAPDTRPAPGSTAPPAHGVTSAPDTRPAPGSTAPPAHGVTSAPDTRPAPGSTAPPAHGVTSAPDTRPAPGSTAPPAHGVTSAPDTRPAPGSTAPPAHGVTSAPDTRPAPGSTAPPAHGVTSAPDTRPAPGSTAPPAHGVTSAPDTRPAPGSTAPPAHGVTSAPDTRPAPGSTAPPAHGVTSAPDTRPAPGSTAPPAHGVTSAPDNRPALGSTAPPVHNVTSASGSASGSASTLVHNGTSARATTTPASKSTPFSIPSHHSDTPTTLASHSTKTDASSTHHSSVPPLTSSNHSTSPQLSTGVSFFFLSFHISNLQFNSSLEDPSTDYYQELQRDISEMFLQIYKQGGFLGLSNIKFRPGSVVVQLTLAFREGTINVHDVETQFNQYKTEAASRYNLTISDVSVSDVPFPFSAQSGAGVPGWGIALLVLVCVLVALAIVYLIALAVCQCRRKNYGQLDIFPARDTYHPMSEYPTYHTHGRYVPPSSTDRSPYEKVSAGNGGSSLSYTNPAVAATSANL
Description: as §1, §2, §3, §4

[7] = system: MUC1 expressed on activated T cells; experiment: as above; type: cell-based, human
Description: as §2
As an initial study, MUC1 expression was assessed in different cell types (see FIG. 13). Cells included in this study: K562 cells (immortalized human chronic myelogenous leukemia cells), Raji cells (human hematopoietic cell line used as a model of cancer), Raji cells modified to express MUC1-C, activated T cells and RPMI8226 cells (human peripheral blood B cell plasmacytoma/myeloma cell line). MUC1 expression in each of these cells was assessed by staining with an anti-MUC1-N antibody.

[8] = system: unmodified cells; experiment: as above; type: cell-based, human
Description: as §3, §4

Molecule | amount needed for effective signaling of cells, converted [1] [µg/L] | amount needed for effective signaling of cells, converted to dose [1] [µg/kg] | concentration at which AP1903 induces apoptosis (lowest of the study) [2] [nM] | AP1903 plasma levels versus dose ([3]; 0.01-1.0 mg/kg dose range) | plasma levels as % of maximal concentration ([3]; 0.5 hours post-dose) | plasma levels as % of maximal concentration ([3]; 2 hours post-dose) [%] | plasma levels as % of maximal concentration ([3]; 10 hours post-dose) [%] | well-tolerated doses ([3]; Phase I study of AP1903) | mean Cmax ([3]; single doses 0.01-1.0 mg/kg infused IV over 2 hours, 24 healthy volunteers, plasma) [ng/mL] | amount needed in vitro for effective signaling of cells [4] [nM] | CAR reactivity / binding (degranulation) [5] | CAR reactivity / binding (degranulation) [6] | CAR reactivity (degranulation) [7] | CAR binding (degranulation) [8]
CC[C@H](C(=O)N1CCCC[C@H]1C(=O)O[C@H](CCc1ccc(OC)c(OC)c1)c1cccc(OCC(=O)NCCNC(=O)COc2cccc([C@@H](CCc3ccc(OC)c(OC)c3)OC(=O)[C@@H]3CCCCN3C(=O)[C@@H](CC)c3cc(OC)c(OC)c(OC)c3)c2)c1)c1cc(OC)c(OC)c(OC)c1 (relative stereo) [AP1903, 2-Piperidinecarboxylic acid, 1-[(2S)-1-oxo-2-(3,4,5-trimethoxyphenyl)butyl]−, 1,2-ethanediylbis[imino(2-oxo-2,1-ethanediyl)oxy-3,1-phenylene[(1R)-3-(3,4-dimethoxyphenyl)propylidene]]ester, [2S-[1(R*),2R*[S*[S*[1 (R*),2R*]]]]]-(9C1)] | 16 to 160 | 0.016 to 1.6 | ≤ 0.1 | directly proportional to dose | approximately 18% | ~7 | ~1 | up to 1 mg/kg | 10 to 1275 | 10 to 100 |  |  |  | 
B1 |  |  |  |  |  |  |  |  |  |  | only reacts against cleaved, non-shed MUC1-C; also recorded: specifically binds | not full length MUC1 |  | 
B2 |  |  |  |  |  |  |  |  |  |  | binds | reacts against full length MUC1; also recorded: binds | including that expressed on activated T cells | binds
